# Measured values as given in patent US5302610A, “Renal-selective biphenylmethyl imidazole angiotensin II antagonists for treatment of hypertension” (G. D. Searle & Co., priority 1991, dated 1994).
# Legend:
# AII receptor = experiment: Assay C: In Vivo Intraduodenal Pressor Assay Response for AII Antagonists; set-up: species or system male Sprague-Dawley rats
# Procedure: The in vivo AII receptor antagonist activity of Example #5 compound was examined in ganglion-blocked male Sprague-Dawley rats (Harlan Sprague-Dawley, Inc.), weighing 300-400 g, anesthetized with 100 mg/kg i.p. Inactin. Catheters (PE-50) were implanted in a femoral artery and vein to measure mean arterial pressure and to administer compounds, respectively. A tracheal catheter maintained airway patency. For intravenous experiments, autonomic neurotransmission was blocked by treatment with mecamylamine (3 mg/kg i.v.) and atropine (400 μg/kg i.v.). AII (30 ng/kg i.v., 20-25 μl volume) was administered four times at 10 minute intervals to establish a reproducible control pressor response. Example #5 compound was then administered at 1, 3 and 10 mg/kg in separate groups of rats as an intravenous bolus (0.2 ml volume) before rechallenging with AII (30 ng/kg, 20-25 μl volume) for the following 2 hours. For intraduodenal experiments, rats were anesthetized as above, but ganglion blockade was not performed. AII was administered at 100 ng/kg i.v. (20-25 μl volume), and was administered at 10, 30 and 100 mg/kg in separate groups of rats as an intraduodenal bolus (0.2 ml volume). […] The response to AII was calculated as percent of the control response and then the percent inhibition was calculated as 100 minus the percent control response. Duration of action of a test compound was defined as the time from peak percent inhibition to 50% of peak. The test compound was tested in two rats and the values for the two rats were averaged.
# [1] = tested on: response to angiotensin II (mean arterial pressure); experiment: Assay E: Mean Arterial Pressure, acute administration with AII infusion; assay type: in vivo, male Sprague-Dawley rats, conscious; conditions: for Mean Arterial Pressure: n = 6, means±SE
# Procedure: antagonist compound (Ex. #5) and a glutamyl conjugate (Ex. #81) of the Ex. #5 AII antagonist compound to determine the renal selectivity of the conjugate. Male Sprague-Dawley rats (300-350 g body weight) had catheters implanted into the femoral artery and vein under chloral hydrate anesthesia (400 mg/kg, i.p.). After 2 to 4 days of recovery, on the experimental day, a urinary bladder catheter was implanted under methohexital anesthesia (50 mg/kg, i.p.). Rats were placed in a restraint device to allow for urine collection and mean arterial pressure measurements. After 1-2 hours of recovery, in conscious rats, an isotonic saline infusion (50 μl/min) was started and continued for the duration of the experiment. After one hour equilibration to the saline infusion, a 20 minute control urine and mean arterial pressure collection were obtained. Then angiotensin II was infused at 20 ng/min for 25 minutes. After 5 minutes of angiotensin II infusion, a 20 minute experimental collection was made. Finally, 5 minutes after the end of angiotensin II infusion, a 20 minute recovery collection was obtained. In separate groups of rats, vehicle (0.3 ml isotonic saline, i.v. bolus), Example #5 angiotensin II antagonist compound (100 mg/kg, i.v. bolus), or Example #81 conjugate (100 mg/kg, i.v. bolus) was administered 1-2 minutes prior to onset of angiotensin II infusion. […] Results are shown in Tables XIII and XIV and also in FIGS. 3 and 4. Data are presented as means±SE. Repeated measures analysis of variance was used for main effects and interactions and Tukey's HSD test was used for pairwise comparisons among means. Statistical significance was defined as p<0.05.
smiles,measurement,setting,value
CCCCc1nc(Cl)c(CO)n1Cc1ccc(-c2ccccc2C(=O)O)cc1 [Example 5],% Control of AII Pressor Response,"AII receptor; 10 mg/kg intraduodenal, 1 min",100%
same,% Control of AII Pressor Response,"AII receptor; 10 mg/kg intraduodenal, 5 min",94%
same,% Control of AII Pressor Response,"AII receptor; 10 mg/kg intraduodenal, 10 min",99%
same,% Control of AII Pressor Response,"AII receptor; 10 mg/kg intraduodenal, 20 min",85%
same,% Control of AII Pressor Response,"AII receptor; 10 mg/kg intraduodenal, 30 min",91%
same,% Control of AII Pressor Response,"AII receptor; 10 mg/kg intraduodenal, 40 min",91%
same,% Control of AII Pressor Response,"AII receptor; 10 mg/kg intraduodenal, 50 min",95%
same,% Control of AII Pressor Response,"AII receptor; 10 mg/kg intraduodenal, 60 min",93%
same,% Control of AII Pressor Response,"AII receptor; 10 mg/kg intraduodenal, 75 min",95%
same,% Control of AII Pressor Response,"AII receptor; 30 mg/kg intraduodenal, 1 min",48%
same,% Control of AII Pressor Response,"AII receptor; 30 mg/kg intraduodenal, 5 min",48%
same,% Control of AII Pressor Response,"AII receptor; 30 mg/kg intraduodenal, 10 min",44%
same,% Control of AII Pressor Response,"AII receptor; 30 mg/kg intraduodenal, 20 min",28%
same,% Control of AII Pressor Response,"AII receptor; 30 mg/kg intraduodenal, 30 min",34%
same,% Control of AII Pressor Response,"AII receptor; 30 mg/kg intraduodenal, 40 min",42%
same,% Control of AII Pressor Response,"AII receptor; 30 mg/kg intraduodenal, 50 min",41%
same,% Control of AII Pressor Response,"AII receptor; 30 mg/kg intraduodenal, 60 min",53%
same,% Control of AII Pressor Response,"AII receptor; 30 mg/kg intraduodenal, 75 min",74%
same,% Control of AII Pressor Response,"AII receptor; 100 mg/kg intraduodenal, 1 min",28%
same,% Control of AII Pressor Response,"AII receptor; 100 mg/kg intraduodenal, 5 min",19%
same,% Control of AII Pressor Response,"AII receptor; 100 mg/kg intraduodenal, 10 min",15%
same,% Control of AII Pressor Response,"AII receptor; 100 mg/kg intraduodenal, 20 min",14%
same,% Control of AII Pressor Response,"AII receptor; 100 mg/kg intraduodenal, 30 min",9%
same,% Control of AII Pressor Response,"AII receptor; 100 mg/kg intraduodenal, 40 min",5%
same,% Control of AII Pressor Response,"AII receptor; 100 mg/kg intraduodenal, 50 min",13%
same,% Control of AII Pressor Response,"AII receptor; 100 mg/kg intraduodenal, 60 min",10%
same,% Control of AII Pressor Response,"AII receptor; 100 mg/kg intraduodenal, 75 min",13%
same,Mean Arterial Pressure,"[1]; 100 mg/kg i.v. bolus, Recovery after AII infusion",124 ± 7 mm Hg
same,Mean Arterial Pressure,"[1]; 100 mg/kg i.v. bolus, during AII infusion 20 ng/min, * in table",125 ± 7 mm Hg
same,mean arterial pressure response to angiotensin II,"[1]; 100 mg/kg, i.v. bolus, AII 20 ng/min",prevented both responses to angiotensin II
same,Mean Arterial Pressure,[1]; Control period (before dosing),123 ± 5 mm Hg
